Reference: the supplement of paper PMC4932681
Where a name gives a salt, the structure may show the parent alone.

Tests used:
MCF-7 Tam1 [1] = experiment: drug sensitivity score (DSS) (DSS (dimensionless)); higher = more sensitive; extreme values may be limits of the assay; details: 4-OH-tamoxifen in medium 1 µM; 72 h
Protocol: (§1)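 FIMM FO2B library drugs were tested at 5 concentrations (10,000-fold range) for 72 h, with CellTiter-Glo viability normalised to DMSO and benzethonium chloride controls. The Drug Sensitivity Score (DSS) is computed from the fitted logistic dose-response curve (area-based; 0 = inactive). Resistant lines and the 'in 1µM tamoxifen' arms were tested in 1 µM 4-OH-tamoxifen.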

BT-474 [2] = experiment: as above; details: 72 h
Protocol: as §1

BT-474 Tam2 [3] = experiment: as above; details: 4-OH-tamoxifen in medium 1 µM; 72 h
Protocol: as §1

ZR-75-1 Tam1 [4] = experiment: as above; details: 4-OH-tamoxifen in medium 1 µM; 72 h
Protocol: as §1

T-47D Tam2 = experiment: as above; details: 4-OH-tamoxifen in medium 1 µM; 72 h
Protocol: as §1

T-47D [5] = experiment: as above; details: 72 h
Protocol: as §1

T-47D Tam1 [6] = experiment: as above; details: 4-OH-tamoxifen in medium 1 µM; 72 h
Protocol: as §1

MCF-7 [7] = experiment: as above; details: 72 h
Protocol: as §1

ZR-75-1 Tam2 [8] = experiment: as above; details: 4-OH-tamoxifen in medium 1 µM; 72 h
Protocol: as §1

BT-474 Tam1 [9] = experiment: as above; details: 4-OH-tamoxifen in medium 1 µM; 72 h
Protocol: as §1

ZR-75-1 [10] = experiment: as above; details: 72 h
Protocol: as §1

BT-474 [11] = experiment: relative IC50 (midpoint of fitted logistic curve, plateau may be below 50% inhibition; CellTiter-Glo viability); higher = less potent; details: 72 h
Protocol: (§2)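 FIMM FO2B library drugs were plated at 5 concentrations spanning a 10,000-fold range in 384-well plates. Cells were incubated for 72 h at 37 °C and viability was read by CellTiter-Glo, normalised to DMSO (0% inhibition) and 100 µM benzethonium chloride (100% inhibition). IC50 values come from logistic dose-response fits (Breeze pipeline). Tamoxifen-resistant lines and the 'in 1µM tamoxifen' parental arms were tested in medium with 1 µM 4-OH-tamoxifen.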

ZR-75-1 Tam1 [12] = experiment: as above; details: 4-OH-tamoxifen in medium 1 µM; 72 h
Protocol: as §2

T-47D [13] = experiment: as above; details: 72 h
Protocol: as §2

T-47D Tam1 [14] = experiment: as above; details: 4-OH-tamoxifen in medium 1 µM; 72 h
Protocol: as §2

MCF-7 [15] = experiment: as above; details: 72 h
Protocol: as §2

ZR-75-1 Tam2 [16] = experiment: as above; details: 4-OH-tamoxifen in medium 1 µM; 72 h
Protocol: as §2

ZR-75-1 [17] = experiment: as above; details: 72 h
Protocol: as §2

BT-474 Tam2 [18] = experiment: as above; details: 4-OH-tamoxifen in medium 1 µM; 72 h
Protocol: as §2

BT-474 Tam1 [19] = experiment: as above; details: 4-OH-tamoxifen in medium 1 µM; 72 h
Protocol: as §2

MCF-7 Tam1 [20] = experiment: as above; details: 4-OH-tamoxifen in medium 1 µM; 72 h
Protocol: as §2

SMILES	drug sensitivity score (MCF-7 Tam1 [1])	drug sensitivity score (BT-474 [2]; 4-OH-tamoxifen in medium 0 µM)	drug sensitivity score (BT-474 [2]; 4-OH-tamoxifen in medium 1 µM)	drug sensitivity score (BT-474 Tam2 [3])	drug sensitivity score (ZR-75-1 Tam1 [4])	drug sensitivity score (T-47D Tam2)	drug sensitivity score (T-47D [5]; 4-OH-tamoxifen in medium 0 µM)	drug sensitivity score (T-47D [5]; 4-OH-tamoxifen in medium 1 µM)	drug sensitivity score (T-47D Tam1 [6])	drug sensitivity score (MCF-7 [7]; 4-OH-tamoxifen in medium 0 µM)	drug sensitivity score (MCF-7 [7]; 4-OH-tamoxifen in medium 1 µM)	drug sensitivity score (ZR-75-1 Tam2 [8])	drug sensitivity score (BT-474 Tam1 [9])	drug sensitivity score (ZR-75-1 [10]; 4-OH-tamoxifen in medium 0 µM)	drug sensitivity score (ZR-75-1 [10]; 4-OH-tamoxifen in medium 1 µM)	relative IC50 (BT-474 [11]; 4-OH-tamoxifen in medium 1 µM) [µM]	relative IC50 (ZR-75-1 Tam1 [12]) [nM]	relative IC50 (T-47D [13]; 4-OH-tamoxifen in medium 0 µM) [µM]	relative IC50 (T-47D Tam1 [14]) [nM]	relative IC50 (MCF-7 [15]; 4-OH-tamoxifen in medium 0 µM) [nM]	relative IC50 (MCF-7 [15]; 4-OH-tamoxifen in medium 1 µM) [nM]	relative IC50 (ZR-75-1 Tam2 [16]) [nM]	relative IC50 (ZR-75-1 [17]; 4-OH-tamoxifen in medium 0 µM) [nM]	relative IC50 (ZR-75-1 [17]; 4-OH-tamoxifen in medium 1 µM) [nM]	relative IC50 (BT-474 Tam2 [18]) [µM]	relative IC50 (T-47D [13]; 4-OH-tamoxifen in medium 1 µM) [µM]	relative IC50 (BT-474 Tam1 [19]) [µM]	relative IC50 (MCF-7 Tam1 [20]) [µM]	relative IC50 (BT-474 [11]; 4-OH-tamoxifen in medium 0 µM) [µM]
CO[C@H]1C[C@@H]2CC[C@@H](C)[C@@](O)(O2)C(=O)C(=O)N2CCCC[C@H]2C(=O)O[C@H]([C@H](C)C[C@@H]2CC[C@@H](OP(C)(C)=O)[C@H](OC)C2)CC(=O)[C@H](C)/C=C(\C)[C@@H](O)[C@@H](OC)C(=O)[C@H](C)C[C@H](C)/C=C/C=C/C=C/1C [Ridaforolimus]	0.718	6.16	0	2.86	5.15	2.97	4.69	1.51	5.75	12.2	5.81	10.1	2	8.67	4.9	> 0.1	3.27	0.00563	2.06	1.03	3.28	1	1.23	1.76					
O=C(c1ccc(OCCN2CCCCC2)cc1)c1c(-c2ccc(O)cc2)sc2cc(O)ccc12 [Raloxifene  HCl]	0.681	0.75	2.42	1.14	0	1.8	0.0005	0	0.0352	3.69	1.88	0	1.74	0.0043	0.0503	3.74	> 10000			553	2650	> 10000			4.22	> 10	4		
O=C(Nc1ccncc1)C(=O)c1cn(Cc2ccc(Cl)cc2)c2ccccc12 [Indibulin]	0	0.543	4.58	3.18	0.0575	0.194	0	0.395	3.37	8.82	6.28	0.106	0	0.997	0	0.474		> 10		32	189			> 10000			> 10	> 10	
CNC(=O)c1cc(Oc2ccc(NC(=O)Nc3ccc(Cl)c(C(F)(F)F)c3)c(F)c2)ccn1 [Regorafenib (BAY 73-4506)]	0	1.48	3.22	5.3	0.695	0.22	1.1	0.365	9.09	2.49	1.46	2.33	4.57	0.232	0.299	3.94			370	3540	3340	1940			2.43		3.61		3.83
